“And” between values parts separate entries of the source, which are not always exact repeats. Identical values can stand only once. Inconclusive results and toxic doses are left out. Cut-off read from the data, not from the text of the source: active = T/C of 150% or more; inactive = T/C below 125%.
Tested on: L1210 leukemia ip in BDF1 mice, survival T/C
Test: NCI In Vivo Anticancer Drug Screen. Data for tumor model L1210 Leukemia (intraperitoneal) in B6D2F1 (BDF1) mice
Details: endpoint: mean survival time, higher = longer survival
Outline: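 Survival endpoint. Drug-treated group vs vehicle group, expressed as T divided by C. Tumor passaged by transplantation.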

[1] = dose: 50.0 mg/kg/injection, schedule: Q01DX009 (ip), vehicle: saline with Tween-80
[2] = dose: 100.0 mg/kg/injection, schedule: Q01DX009 (ip), vehicle: saline with Tween-80
[3] = dose: 200.0 mg/kg/injection, schedule: Q01DX009 (ip), vehicle: saline with Tween-80
[4] = dose: 50.0 mg/kg/injection, schedule: Q01DX001 (ip), vehicle: carboxymethylcellulose (CMC)
[5] = dose: 100.0 mg/kg/injection, schedule: Q01DX001 (ip), vehicle: carboxymethylcellulose (CMC)
[6] = dose: 100.0 mg/kg/injection, schedule: Q01DX001 (ip), vehicle: saline
[7] = dose: 200.0 mg/kg/injection, schedule: Q01DX001 (ip), vehicle: carboxymethylcellulose (CMC)
[8] = dose: 200.0 mg/kg/injection, schedule: Q01DX001 (ip), vehicle: saline
[9] = dose: 400.0 mg/kg/injection, schedule: Q01DX001 (ip), vehicle: saline
[10] = dose: 100.0 mg/kg/injection, schedule: Q01DX009 (ip), vehicle: saline
[11] = dose: 100.0 mg/kg/injection, schedule: Q04DX003 (ip), vehicle: saline
[12] = dose: 200.0 mg/kg/injection, schedule: Q04DX003 (ip), vehicle: saline
[13] = dose: 50.0 mg/kg/injection, schedule: Q04DX003 (ip), vehicle: saline with Tween-80
[14] = dose: 100.0 mg/kg/injection, schedule: Q01DX001 (ip), vehicle: saline with Tween-80
[15] = dose: 100.0 mg/kg/injection, schedule: Q04DX003 (ip), vehicle: saline with Tween-80
[16] = dose: 200.0 mg/kg/injection, schedule: Q01DX001 (ip), vehicle: saline with Tween-80
[17] = dose: 100.0 mg/kg/injection, schedule: Q01DX001 (ip), vehicle: Klucel (hydroxypropylcellulose) (HPC)
[18] = dose: 200.0 mg/kg/injection, schedule: Q01DX001 (ip), vehicle: Klucel (hydroxypropylcellulose) (HPC)
[19] = dose: 400.0 mg/kg/injection, schedule: Q01DX001 (ip), vehicle: Klucel (hydroxypropylcellulose) (HPC)
[20] = dose: 50.0 mg/kg/injection, schedule: Q01DX001 (ip), vehicle: saline
[21] = dose: 400.0 mg/kg/injection, schedule: Q04DX003 (ip), vehicle: saline

Measured: T/C

CCOCCC(=O)CC(=O)OC
inactive: [1] 96 % of control | [2] 100 % of control | [3] 96 % of control

CCCCCCCC/C=C\CCCCCCCC(=O)NCCCOCCOCC
inactive: dose: 75.0 mg/kg/injection, schedule: Q04DX003 (ip), vehicle: saline 94 % of control | dose: 150.0 mg/kg/injection, schedule: Q04DX003 (ip), vehicle: saline 96 % of control | dose: 300.0 mg/kg/injection, schedule: Q04DX003 (ip), vehicle: saline 96 % of control

[I][Bi]([I])[I]
inactive: [4] 114 % of control | [5] 105 % of control | [6] 108 % of control | [7] 102 % of control | [8] 94 % of control | [9] 97 % of control

CCN(CC)C(=O)C1C=C2c3cccc4c3c(c(Br)n4C)CC2N(C)C1 (stereo not drawn)
inactive: dose: 12.5 mg/kg/injection, schedule: Q01DX009 (ip), vehicle: saline 102 % of control | dose: 25.0 mg/kg/injection, schedule: Q01DX009 (ip), vehicle: saline 120 % of control | dose: 25.0 mg/kg/injection, schedule: Q04DX003 (ip), vehicle: saline 103 % of control | dose: 50.0 mg/kg/injection, schedule: Q01DX009 (ip), vehicle: saline 112 % of control | dose: 50.0 mg/kg/injection, schedule: Q04DX003 (ip), vehicle: saline 98 % of control | [10] 107 % of control | [11] 104 % of control | [12] 106 % of control

CC1CCC(C(O)(C(=O)O)C2CCCCC2)CC1 (stereo not drawn)
inactive: dose: 75.0 mg/kg/injection, schedule: Q01DX001 (ip), vehicle: other 104 % of control | dose: 150.0 mg/kg/injection, schedule: Q01DX001 (ip), vehicle: other 101 % of control

CCOCN1CCCC1
inactive: dose: 25.0 mg/kg/injection, schedule: Q01DX009 (ip), vehicle: saline with Tween-80 101 % of control | [1] 96 % of control | [13] 91 % of control | [14] 104 % of control | [2] 95 % of control | [15] 103 % of control | [16] 110 % of control

CCCCCCCCCCCCCCCCCOc1ccc2ccccc2c1
inactive: [14] 87 % of control | [16] 89 % of control

Nc1csc2ncccc12
inactive: [17] 112 % of control | [18] 105 % of control | [19] 114 % of control

Cc1cn2ccccc2c[n+]1=O
inactive: dose: 5.0 mg/kg/injection, schedule: Q01DX009 (ip), vehicle: saline sonified 98 % of control | dose: 10.0 mg/kg/injection, schedule: Q01DX009 (ip), vehicle: saline sonified 98 % of control | dose: 20.0 mg/kg/injection, schedule: Q01DX009 (ip), vehicle: saline sonified 87 % of control

CCOC(=O)C(C=O)(NC(=O)c1ccccc1)OCC (stereo not drawn)
inactive: [15] 94 % of control | dose: 200.0 mg/kg/injection, schedule: Q04DX003 (ip), vehicle: saline with Tween-80 101 % of control | dose: 400.0 mg/kg/injection, schedule: Q04DX003 (ip), vehicle: saline with Tween-80 105 % of control

C=C1C(=O)OC2C1CCC(C)C1CC(O)C(O)C12C (stereo not drawn)
inactive: dose: 12.5 mg/kg/injection, schedule: Q04DX003 (ip), vehicle: Klucel (hydroxypropylcellulose) (HPC) 96 % of control | dose: 25.0 mg/kg/injection, schedule: Q04DX003 (ip), vehicle: Klucel (hydroxypropylcellulose) (HPC) 101 % of control | dose: 50.0 mg/kg/injection, schedule: Q04DX003 (ip), vehicle: Klucel (hydroxypropylcellulose) (HPC) 101 % of control

O=C1C(=O)c2cc(Br)cc([N+](=O)[O-])c2-c2ccc(Br)cc21
inactive: [4] 95 % of control | [5] 106 % of control | [7] 101 % of control | dose: 400.0 mg/kg/injection, schedule: Q01DX001 (ip), vehicle: carboxymethylcellulose (CMC) 97 % of control

Nc1ccn(C2CCCO2)c(=O)n1 (stereo not drawn)
inactive: [20] 101 % of control | [6] 95 % of control | [8] 95 % of control | [9] 95 % of control

CC1(C)CC2(C)OC3(C)CC(C)(C)OC3(C)OC2(C)O1 (stereo not drawn)
inactive: [17] 107 % of control | [18] 102 % of control | [19] 102 % of control

CCc1c[n+]([O-])c(C)cc1[N+](=O)[O-]
inactive: [10] 108 % of control | [11] 101 % of control | dose: 200.0 mg/kg/injection, schedule: Q01DX009 (ip), vehicle: saline 101 % of control | [12] 122 % of control | [21] 95 % of control

Nc1cccn2cnnc12
inactive: [6] 103 % of control | [8] 101 % of control | [9] 97 % of control

CCOC(=O)/C(C#N)=C(\C)c1cccc(C)c1
inactive: dose: 25.0 mg/kg/injection, schedule: Q04DX003 (ip), vehicle: saline with Tween-80 94 % of control | [13] 94 % of control | [15] 102 % of control

O=C(NC(=S)Nc1ccc2c(c1)C(=O)c1ccccc1C2=O)c1cccc(Br)c1
inactive: [1] 98 % of control | [14] 96 % of control | [2] 98 % of control and 92 % of control | dose: 100.0 mg/kg/injection, schedule: Q04DX002 (ip), vehicle: saline with Tween-80 96 % of control and 97 % of control | [16] 93 % of control | [3] 97 % of control and 98 % of control | dose: 200.0 mg/kg/injection, schedule: Q04DX002 (ip), vehicle: saline with Tween-80 94 % of control and 103 % of control | dose: 400.0 mg/kg/injection, schedule: Q01DX001 (ip), vehicle: saline with Tween-80 103 % of control | dose: 400.0 mg/kg/injection, schedule: Q04DX002 (ip), vehicle: saline with Tween-80 96 % of control and 97 % of control

COc1cc(C=Nc2cccc(Cl)c2)ccc1N(CCCl)CCCl
inactive: dose: 12.5 mg/kg/injection, schedule: Q01DX Z (ip), vehicle: carboxymethylcellulose (CMC) 122 % of control | dose: 25.0 mg/kg/injection, schedule: Q01DX Z (ip), vehicle: carboxymethylcellulose (CMC) 120 % of control | dose: 35.0 mg/kg/injection, schedule: Q01DX015 (ip), vehicle: carboxymethylcellulose (CMC) 87 % of control

O=C(N/N=C\c1ccc(N(CCCl)CCCl)cc1[N+](=O)[O-])c1cccnc1
inactive: [20] 94 % of control | [6] 113 % of control | [8] 92 % of control

CN(C)/C=N/NC(=O)C1CC1
inactive: [11] 100 % of control | [12] 97 % of control | [21] 107 % of control

Source: PubChem BioAssay AID248 (DTP/NCI, 2004)
